Measured values taken from patent publication US20200155650A1, “Combination treatment of NAFLD and NASH” (CymaBay Therapeutics, Inc., priority 2018, published 2020).
pEC50: −log10 of the molar value.

Experiments:
[1] = system: Alms1 mutant (fozlfoz) mice; conditions: 10 mg/Kg by gavage for 8 weeks, cited from earlier work
[2] = system: subjects with liver biopsy-proven NASH; assay: Example 3, clinical, single agent seladelpar in biopsy-proven NASH; assay type: in vivo, human; conditions: 10, 20, and 50 mg/day for 52 weeks
Method: One hundred seventy-five subjects with liver biopsy-proven NASH are treated with doses of 10, 20, and 50 mg/day, or placebo (2:2:2:1 randomization) for 52 weeks. Subjects are permitted their usual other medications (e.g. antidiabetic medications such as metformin or […]) but not glitazones, PPAR agonists, OCA, or similar medications. […] The primary efficacy outcome is the change in baseline in liver fat content at 12 weeks, as measured by magnetic resonance imaging-derived proton density fat fraction (MRI-PDFF). Other outcome measures include histological improvement in NASH and fibrosis, assessed by comparing liver biopsy samples at baseline and at 52 weeks after the start of dosing; MRI-PDFF at 26 and 52 weeks; and measurements of total cholesterol, HDL-C, LDL-C, VLDL-C, TGs, apoB, and liver transaminases. The subjects also maintain health diaries, which are reviewed at each visit.

PPARα = molecular target: T1, PPARα (Homo sapiens, UniProt Q07869); conditions: cited from earlier work
T1 sequence (Q07869 1-468): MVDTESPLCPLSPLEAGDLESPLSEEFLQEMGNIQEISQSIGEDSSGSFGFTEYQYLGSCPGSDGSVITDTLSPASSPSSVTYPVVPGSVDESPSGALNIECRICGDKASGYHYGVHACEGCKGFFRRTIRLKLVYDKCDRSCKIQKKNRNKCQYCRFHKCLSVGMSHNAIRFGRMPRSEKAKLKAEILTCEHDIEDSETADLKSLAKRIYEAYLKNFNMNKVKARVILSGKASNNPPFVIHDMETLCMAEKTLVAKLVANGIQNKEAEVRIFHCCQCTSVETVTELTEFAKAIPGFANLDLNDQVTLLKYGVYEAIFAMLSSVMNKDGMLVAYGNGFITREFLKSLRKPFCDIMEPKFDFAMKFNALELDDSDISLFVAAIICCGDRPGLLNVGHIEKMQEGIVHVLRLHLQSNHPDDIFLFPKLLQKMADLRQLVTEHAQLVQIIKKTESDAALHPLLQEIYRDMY

| SMILES | mean nonalcoholic fatty liver disease activity score (NAS) ([1]; vehicle 6.9) | reduction of serum alanine aminotransferase ([1]; vehicle 300-600 U/L) [%] | hyperglycemia, hyperinsulinemia, and glucose disposal [1] | improvement in disease (MRI-PDFF, liver biopsy, NAS score) [2] | pEC50 (PPARα) |
| --- | --- | --- | --- | --- | --- |
| CCO[C@H](COc1ccc(C(F)(F)F)cc1)CSc1ccc(OCC(=O)O)c(C)c1 [Seladelpar, (R)-2-(4-((2-ethoxy-3-(4-(trifluoromethyl)phenoxy)propyl)-sulfanyl)-2-methylphenoxy)acetic acid] | 3.13 | 50 | normalized | dose-related improvement in their disease |  |
| CSc1ccc(C(=O)/C=C/c2cc(C)c(OC(C)(C)C(=O)O)c(C)c2)cc1 [elafibranor] |  |  |  |  | 8.22 |
